# Measurements reported in patent US20090317372A1, “SMALL MOLECULES FOR THE REDUCTION OF HIGH BLOOD GLUCOSE LEVEL” (priority 2008, published 2009).
# Tests used:
# ob/ob mice [1] = assay: Blood glucose level of normally fed ob/ob obese diabetic mice, daily treatment; assay type: in vivo; conditions: 4.5-mg/kg s.c. once daily
# Description: Adult female leptin-deficient ob/ob obese diabetic inbred specified pathogen free (SPF) hygienic category mice from Charles River VRF1 were used for these experiments. The mice weighed 32-36-g at arrival. The ob/ob obese mouse is an extensively used animal model for the study of non-insulin-dependent-diabetes mellitus (NIDDM). The mutation was propagated in the C57BL/6J (BL/6) inbred strain. Homozygous obese (ob/ob) animals developed hyperglycemia due to insulin resistance, hyperinsulinemia (to compensate for reduced insulin action), and obesity. In these animals gluconeogenesis is enhanced despite their hyperinsulinemic state. The animals were kept in macrolon cages at 22-24° C. and 50-60% humidity, with lighting regimen of 12/12 h light dark. They had free access to tap water and were fed a sterilized standard diet (Charles River VRF1, autoclavable). The animals were cared for according to the “Guiding Principles for the Care and Use for Animals” based upon the Helsinki declaration. The ob/ob mice gained weight rapidly and developed a marked obesity by 5-6 weeks of age. […] When arrived they were 5 weeks old (when the experiment was performed with CCcompound1) or 4.5 weeks old (when the experiment was performed with CCcompound3 and CCcompound19). The treatments started 8 days later in the experiment performed with CCcompound1 and 10 days later in the experiment performed with CCcompound3 and CCcompound19. Experimental groups selected from ob/ob mice were injected subcutaneously (s.c.) at regular intervals once daily for 14 days with CCcompound1 or an analog (CCcompound3 or CCcompound19) each at the dose of 4.5-mg per kg. Control groups were also selected from ob/ob mice that remained untreated during the entire length of the experiment. In the first experiment, for which the data is presented in TABLE 11, blood samples were taken either 45 min or 6 hours after treatments with CCcompound1. In the second experiment, for which the data is presented in TABLE 12, blood samples were taken 45 min after treatments with the analogs of CCcompound1. Blood glucose was determined with the Fast Glucose C test. Both the untreated and CC compound-treated groups included 5 animals. The data are the mean±std. dev.
# ob/ob mice [2] = assay: Blood glucose in ob/ob mice, CCcompound1 combined with human proteins AGP and TF; assay type: in vivo
# Procedure: For each experimental group, ob/ob mice were chosen (5 mice in each group) that were 43 days old and weighed on average 40.3±1.9-g on the first day of experiment. Three groups of mice were treated with s.c. injection of 4.5-mg/kg CCcompound1 once every day for 17 days. Mice in one of these CCcompound1-treated groups received no other treatment, and their blood was drawn for glucose analysis on day 14 and 17 exactly 45 min after treatment. The second CCcompound1-treated group also received 0.5-mg/mouse (˜11 mg/kg) dose of greater than 98% pure commercial human transferrin [catalogue number, T 3309 according to 2004/2005 Sigma catalogue]. In this second group the blood was drawn on day 14 just prior to TF administration and on day 17 two hours after TF and 45 min after CCcompound1 administration. An additional group of animals received only TF treatment. The third CCcompound1-treated group also received 1.2-mg/mouse (26.6-mg/kg) dose of >99% pure human AGP [catalogue number G 9885 according to 2004/2005 Sigma catalogue]; in this group the blood was drawn on day 14 just prior to AGP administration and on day 17 two hours and 45 minutes after administration of AGP and CCcompound1, respectively. An additional group of animals received only AGP treatment, and yet another group of animals received no treatment at all. On day 1, prior to any treatment, the blood glucose level of all animals was in the range of 7.2-7.9 mM.
smiles,measurement,setting,value
"Cc1c(OCC(O)C[N+](C)(C)C)cc2c(=O)c3ccccc3sc2c1C.[Cl-] (stereo not drawn) [CCcompound 1, [3-(3,4-Dimethyl-9-oxo-9H-thioxanthen-2-yloxy)-2-hydroxypropyl]trimethyl-ammonium chloride]",Glucose level,"ob/ob mice [1]; 45 min after treatment, day 1",6.2 ± 0.4 mM
same,Glucose level,"ob/ob mice [1]; 45 min after treatment, day 4",7.4 ± 0.3 mM
same,Glucose level,"ob/ob mice [1]; 45 min after treatment, day 7",8.4 ± 0.2 mM
same,Glucose level,"ob/ob mice [1]; 45 min after treatment, day 11",9.2 ± 0.3 mM
same,Glucose level,"ob/ob mice [1]; 45 min after treatment, day 14",10.2 ± 0.3 mM
same,Glucose level,"ob/ob mice [1]; 6 hours after treatment, day 4",11.3 ± 0.7 mM
same,Glucose level,"ob/ob mice [1]; 6 hours after treatment, day 7",13.8 ± 0.4 mM
same,Glucose level,"ob/ob mice [1]; 6 hours after treatment, day 11",15.7 ± 0.4 mM
same,Glucose level,"ob/ob mice [1]; 6 hours after treatment, day 14",17.5 ± 0.4 mM
same,Glucose level,"ob/ob mice [1]; blood 6 hours after treatment, day 1",9.3 ± 0.4 mM
same,Blood glucose level,"ob/ob mice [2]; 14th day, CC1 4.5-mg/kg s.c. daily, 45 min after treatment, blood drawn just prior to AGP or TF administration",10.9 ± 0.9 mM
same,Blood glucose level,"ob/ob mice [2]; 17th day, 45 min after CC1 4.5-mg/kg s.c., two hours after TF 0.5-mg/mouse or AGP 1.2-mg/mouse",11.4 ± 0.4 mM
